# Experimental data from patent publication US20250361485A1, “MODIFIED CD4+ T CELLS EXPRESSING IL-37 AND METHODS OF USE THEREOF” (The Regents of the University of Colorado, A Body Corporate, priority 2022, published 2025).
# Experiments:
# Type in all cases: cell-based
# FOXP3 [1] = assay: siRNA knockdown in primary human T cells, FOXP3 and marker expression; details: siRNA 48 h prior
# Protocol: Purified primary human CD4+ T cells were used for siRNA knockdown of RUNX1, RPTOR, IL37, CREB1, CHK1, NLRP2, NLRP3, NLRP4, ASC, and NLRC4, and CD4+CD25+CD127^dim T cells for siRNA knockdown of FOXP3 and IL37. Cells were purified from healthy donor PBMCs as described above and then placed in culture in complete RPMI 1640 for at least 2 h prior to siRNA transfection via nucleofection using the Amaxa P3 Primary Cell 4D-Nucleofector X Kit L (Lonza) following the manufacturer's instructions. For the knockdown of RPTOR and IL-37, three different siRNAs (30 nM) against RPTOR and IL-37: A, B, and C (OriGene, Rockville, MD) were used separately or pooled, whereas for FOXP3 knockdown, only the pool of three different siRNAs (30 nM) against FOXP3: A, B, and C (OriGene) was used due to a limited number CD4+CD25+CD127^dim T cells. For the knockdown of NLRP3A, three to four siRNAs were pooled together, and for NLRC4 and NLRP4, Dharmacon SMARTpool was used. Single-sense and anti-sense siRNAs were used for NLRP2 and ASC (Ambion). Scrambled siRNA (OriGene, Ambion, and Dharmacon) was used as a control. Knockdowns were confirmed 24 hours after nucleofection by qRT-PCR or 48 hours later by western blot, and the relative density of the protein bands was determined using FIJI. […]
# FOXP3 [2] = assay: FOXP3 expression in human Treg / CD4+ T cells treated with SMAD3 inhibitors; details: for FOXP3 mRNA expression: purified human Treg cells
# Description: p-SMAD3 […]/425 is recognized for its involvement in TGFβ signaling. […] Given the essential role of SMAD3 phosphorylation in nuclear localization and transcriptional activity controlling other genes, the phosphorylation status and its association with IL-37 in human Treg cells was examined (FIG. 24A). Inhibitors of […]/425 sites (SIS3) and […]/[…] sites (flavopiridol) were utilized to determine if they could decrease FOXP3 mRNA expression and disrupt the SMAD3/IL-37 interaction. […] These findings also point to a crucial interplay between p-SMAD3 […] and IL-37 in orchestrating the transcriptional regulation of FOXP3 in human Treg cells.
# human Treg cells = assay: CD25+FOXP3+ frequency in human Treg cells cultured with IL-6; details: anti-TCR/CD28, IL-6 20 ng/ml
# Protocol: Purified lymphocytes from either humans or mice were washed with FACS buffer (5% BSA (Sigma-Aldrich) and 1×PBS), and then prepared for surface or intracellular staining, as described (Osborne and Wetzel, 2012). For surface staining, 1 μg or the manufacturer-recommended amounts of fluorescently conjugated antibody specific to the surface marker to be visualized was added to 1×10^6 cells resuspended in 100 μl of FACS buffer for 30 min at 4° C., then washed 2× with FACS buffer prior to being either analyzed or further processed. For intracellular cytokine staining (ICS), the FOXP3 Cytoperm/Cytofix staining kit (BD Pharmingen, San Diego, CA) was used after cells were stimulated for 24 h on 1 μg/ml anti-CD3-coated plates with soluble 1 μg/ml anti-CD28 antibody or anti-CD3/CD28 conjugated Dynabeads™ (Gibco, Thermo Fisher). For measuring proliferation, cells were stained with 5-μM CFSE (Molecular Probes, Eugene, OR) prior to cell culture and analyzed using flow cytometry. Flow-based measurement of caspase-1 activation was done using the FAM-FLICA® Caspase-1 Assay kit #98 following the manufacturer's instructions (ImmunoChemistry Tech, Bloomington, MN). […] All acquisitions were performed on a Galios® or Galios® 561 cytometer equipped with Kaluza software (Beckman-Coulter, Indianapolis, IN), and all data were analyzed with FlowJo_V10 software (Tree Star, Ashland, OR).
# p-SMAD3 S208 = assay: Immunoblotting of cytoplasmic and nuclear proteins of human Treg cells after flavopiridol; details: immunoblot
# Protocol: For immunoblot analysis, cells were lysed in RIPA buffer (50 mM Tris-HCL pH 7.4, 150 mM NaCl, 1 mM PMSF, 1 mM EDTA, 5 μg/ml Aprotinin, […] Leupeptin, 1% Triton x-100, 1% Sodium deoxycholate, 0.1% SDS) (Sigma-Aldrich). For IP of Smad3, cells were lysed in Pierce® IP Lysis Buffer (Thermo) and prepared using the Thermo Immunoprecipitation containing Dynabeads™ Protein G kit according to the manufacturer's instructions. The Smad3 IP was performed using the rabbit monoclonal antibody against Smad3 (C67H9) (Thermo). Hsp90 IP using mouse monoclonal antibody against Hsp90 (610418) (BD Biosciences). 20 μg of sample was run on a 4-15% Mini-Protean TGX precast gel (Bio-Rad) and then transferred overnight at 4° C. and 30 V to a PVDF membrane using a Bio-Rad Trans-Blot® transfer cell. Following 1 h of blocking with blocking buffer (5% milk/Tween 20 in TBS), membranes were incubated with primary antibody overnight at 4° C. For siRNA knockdown blots, mouse β-actin monoclonal antibody (Sigma-Aldrich) at a dilution of 1:10,000 was used for the loading control. For Smad3 IP, rabbit anti-human IL-37 (IL-1F7) polyclonal antibody (Invitrogen, Thermo) at a dilution of 1:1000 was used to detect IL37. HRP-conjugated anti-rabbit (1:5000) and anti-mouse IgG (1:5000) were purchased from Sigma-Aldrich. The SuperSignal West Pico Kit (Thermo Fisher) was used according to the manufacturer's instructions for the chemiluminescent detection of the proteins. Protein expression was further analyzed by measuring the relative densities using FIJI (National Institutes of Health: http://rsb.info.nih.gov/ij/) or LI-COR Image Studio™ Software.
# Therefore, cytoplasmic and nuclear proteins of primary human Treg cells was scrutinized following flavopiridol treatment to ascertain if p-SMAD3 S208 is essential for the nuclear localization of SMAD3 and IL-37.
# caspase-1 = assay: Caspase-1 inhibition in human Treg / CD4+ T cells; details: 50 μM
# Protocol: For proximity ligation assay (PLA) experiments, after primary antibodies were washed out, cells were incubated for 1 h at 37° C. with an anti-rabbit PLUS probe (1:5 dilution; Duo92002; Sigma-Aldrich) anti-mouse MINUS probe (1:5 dilution; Duo92004; Sigma-Aldrich) and were washed two times with wash buffer A. Probes were then ligated for 30 min at 37° C. and washed two times in Buffer A and were amplified for 100 min at 37° C. in the dark with polymerase (Sigma-Aldrich). For flow-based PLA (Sigma-Aldrich), after amplification, cells were treated with 1× green detection buffer for 30 min at 37° C., then washed 2× with PLA wash buffer and prepared for flow analysis. After 2 washes with 1× Buffer B (Thermo Fisher), each well was added with ProLong™ Gold antifade reagent (Thermo Fisher) containing DAPI nuclear stain. Images were obtained with an Olympus FV1000 FCS/RICS system (Olympus, Tokyo, Japan). For analysis, 7 different 100×/1.4 Oil Plan-Apochromatic objective fields of view were imaged per well per experiment. Each field was measured for IL-37 fluorescence intensity using the FIJI measurement application. To analyze the cytoplasmic vs. nuclear localization of IL-37 within the T cells, DAPI and IL-37 overlapped images was used. Along with single-slice full field images, […] slice z-stack images were taken to confirm cytoplasmic vs. nuclear localization of IL-37. Colocalization of IL-37 and DAPI was assessed by Pearson's correlation coefficient using FIJI. Line intensity profiles were created using a Plot profile in FIJI to measure differences in fluorescence across a cell by drawing a line spanning the diameter of the cell, and then the staining intensity measurements across the line were then entered into Prism 8 (GraphPad, Lo Jolla, CA). 3D fluorescent maps were created using a Surface plot in FIJI.
# Purified lymphocytes from either humans or mice were washed with FACS buffer (5% BSA (Sigma-Aldrich) and 1×PBS), and then prepared for surface or intracellular staining, as described (Osborne and Wetzel, 2012). For surface staining, 1 μg or the manufacturer-recommended amounts of fluorescently conjugated antibody specific to the surface marker to be visualized was added to 1×10^6 cells resuspended in 100 μl of FACS buffer for 30 min at 4° C., then washed 2× with FACS buffer prior to being either analyzed or further processed. […] For measuring proliferation, cells were stained with 5-μM CFSE (Molecular Probes, Eugene, OR) prior to cell culture and analyzed using flow cytometry. […]
molecule,measurement,setting,value
"RUNX1: siRNA against RUNX1 (Ambion), SEQ ID NO: 34-35 (chain 1 AGAACCAGGUUGCAAGAUU; chain 2 AAUCUUGCAACCUGGUUCU; listed as RNA, chemistry not given here)",frequency of FOXP3+ T cells in CD4+ T cells after knockdown,FOXP3 [1],significant decline
COc1cc2c(cc1OC)CN(C(=O)/C=C/c1c(-c3ccccc3)n(C)c3ncccc13)CC2 [SIS3],FOXP3 protein expression,FOXP3 [2]; primary human CD4+ T cells,did not significantly decrease
same,FOXP3 mRNA expression,FOXP3 [2],did not significantly alter
"IL-6: IL-6 (Peprotech), 20 ng/ml, added as inflammatory stimulus to Treg cultures",decrease in frequency of CD25+FOXP3+ cells,human Treg cells; gated IL37hi human Treg cells,no such reduction
same,decrease in frequency of CD25+FOXP3+ cells,human Treg cells; gated IL-37lo human Treg cells,34%
CN1CC[C@H](c2c(O)cc(O)c3c(=O)cc(-c4ccccc4Cl)oc23)[C@H](O)C1 [flavopiridol],expression of IL-37 in the nucleus,p-SMAD3 S208,abolished
same,nuclear SMAD3 levels,p-SMAD3 S208,lowered
same,nuclear levels of FOXP3,p-SMAD3 S208,reduced
same,p-SMAD3 S208,p-SMAD3 S208,diminished
same,"FOXP3 protein expression, fold decrease compared to control cells","FOXP3 [2]; primary human CD4+ T cells, not rescued by TGF-β",~2 fold
same,FOXP3 mRNA expression,FOXP3 [2],almost completely obliterated
Ac-YVAD-CMK,FOXP3 mRNA and protein expression,caspase-1; human CD4+ T cells,reduction
same,decrease of interaction between IL-37 and p-SMAD3 S208,caspase-1; human Treg cells,36.5%
same,IL-37 subcellular localization,"caspase-1; human Treg cells, 24 h",shift of IL-37 localization from the nucleus to the perinuclear region of the cytoplasm
same,IL-37 expression,"caspase-1; human Treg cells, 48 h",without alteration
"CREB1: siRNA against CREB1 (Ambion), SEQ ID NO: 8-9 (chain 1 CCGUAACUCUAGUACAGCU; chain 2 AGCUGUACUAGAGUUACGG; listed as RNA, chemistry not given here)",frequency of FOXP3+ T cells in CD4+ T cells after knockdown,FOXP3 [1],significant decline
